Two compounds from ChEMBL document CHEMBL5376002, “A Hybrid Antimicrobial Peptide Targeting Staphylococcus aureus with a Dual Function of Inhibiting Quorum Sensing Signaling and an Antibacterial Effect” (J Med Chem, 2023) can be followed below.

In brackets after ≈: the same amount, converted by molar mass. Activity calls are given as the source filed them. A value given as a limit tells only on which side of the number the result lay.

Data set [1] deals with Staphylococcus aureus. Description: Antibacterial activity against Staphylococcus aureus ATCC 6538p assessed as inhibition of bacterial growth incubated for 18 to 24 hrs. It is filed as functional. As to conditions: time 18-24 hrs.
Data set [2] concerns Staphylococcus aureus. Description: Bactericidal activity against Staphylococcus aureus ATCC 6538p assessed as inhibition of bacterial growth incubated for 18 to 24 hrs. Type of data set: functional. As to conditions: time 18-24 hrs.
The subject of data set [3] is Staphylococcus aureus. Briefly: Antibacterial activity against Staphylococcus aureus ATCC 12600 assessed as inhibition of bacterial growth incubated for 18 to 24 hrs. The following applies: time 18-24 hrs. It is filed as functional.
Data set [4] relates to Staphylococcus aureus. Briefly: Bactericidal activity against Staphylococcus aureus ATCC 12600 assessed as inhibition of bacterial growth incubated for 18 to 24 hrs. It is filed as functional. The following applies: time 18-24 hrs.
Data set [5] has as its system Staphylococcus aureus. Briefly: Antibacterial activity against Staphylococcus aureus ATCC 43300 assessed as inhibition of bacterial growth incubated for 18 to 24 hrs. It is filed as functional. The following applies: time 18-24 hrs.
Data set [6] deals with Staphylococcus epidermidis. Description: Antibacterial activity against Staphylococcus epidermidis ATCC 12228 assessed as inhibition of bacterial growth incubated for 18 to 24 hrs. As to conditions: time 18-24 hrs. It is filed as functional.
The test system of data set [7] is Staphylococcus epidermidis. Briefly: Bactericidal activity against Staphylococcus epidermidis ATCC 12228 assessed as inhibition of bacterial growth incubated for 18 to 24 hrs. Type of data set: functional. As to conditions: time 18-24 hrs.
Data set [8] relates to Streptococcus pneumoniae. Briefly: Antibacterial activity against Streptococcus pneumoniae ATCC 49619 assessed as inhibition of bacterial growth incubated for 18 to 24 hrs. It is filed as functional. The following applies: time 18-24 hrs.
The subject of data set [9] is Streptococcus pneumoniae. Briefly: Bactericidal activity against Streptococcus pneumoniae ATCC 49619 assessed as inhibition of bacterial growth incubated for 18 to 24 hrs. It is filed as functional. The following applies: time 18-24 hrs.
Data set [10] relates to Staphylococcus saprophyticus. Description: Antibacterial activity against Staphylococcus saprophyticus ATCC BAA-750 assessed as inhibition of bacterial growth incubated for 18 to 24 hrs. Type of data set: functional. As to conditions: time 18-24 hrs.
Data set [11] concerns Staphylococcus saprophyticus. Description: Bactericidal activity against Staphylococcus saprophyticus ATCC BAA-750 assessed as inhibition of bacterial growth incubated for 18 to 24 hrs. Type of data set: functional. As to conditions: time 18-24 hrs.
The subject of data set [12] is Streptococcus mutans. Description: Antibacterial activity against Streptococcus mutans UA159 assessed as inhibition of bacterial growth incubated for 18 to 24 hrs. It is filed as functional. The following applies: time 18-24 hrs.
Data set [13] has as its system Streptococcus mutans. Description: Bactericidal activity against Streptococcus mutans UA159 assessed as inhibition of bacterial growth incubated for 18 to 24 hrs. The following applies: time 18-24 hrs. Type of data set: functional.
Data set [14] has as its system Streptococcus mutans. Briefly: Antibacterial activity against Streptococcus mutans ATCC 25175 assessed as inhibition of bacterial growth incubated for 18 to 24 hrs. It is filed as functional. The following applies: time 18-24 hrs.
Data set [15] relates to Streptococcus mutans. Briefly: Bactericidal activity against Streptococcus mutans ATCC 25175 assessed as inhibition of bacterial growth incubated for 18 to 24 hrs. It is filed as functional. As to conditions: time 18-24 hrs.
Data set [16] relates to Escherichia coli. Description: Antibacterial activity against Escherichia coli ATCC 25922 assessed as inhibition of bacterial growth incubated for 18 to 24 hrs. Type of data set: functional. The following applies: time 18-24 hrs.
Data set [17] relates to Staphylococcus aureus. Description: Bactericidal activity against Staphylococcus aureus ATCC 43300 assessed as inhibition of bacterial growth incubated for 18 to 24 hrs. Type of data set: functional. The following applies: time 18-24 hrs.
Data set [18] deals with Escherichia coli. Description: Bactericidal activity against Escherichia coli ATCC 25922 assessed as inhibition of bacterial growth incubated for 18 to 24 hrs. It is filed as functional. The following applies: time 18-24 hrs.
Data set [19] has as its system Staphylococcus aureus. Description: Antivirulence activity against Staphylococcus aureus assessed as downregulation of RNAIII expression level at 1 to 100 uM incubated for 24 hrs by qRT-PCR analysis. It is filed as functional, organism-based. As to conditions: dose 1-100 µM.
Data set [20] deals with Staphylococcus aureus. Briefly: Antivirulence activity against Staphylococcus aureus assessed as downregulation of hla expression level at 1 to 100 uM incubated for 24 hrs by qRT-PCR analysis. As to conditions: dose 1-100 µM. Type of data set: functional, organism-based.
In data set [21] the test system is Staphylococcus aureus. Briefly: Antivirulence activity against Staphylococcus aureus assessed as downregulation of psm-alpha expression level at 1 to 100 uM incubated for 24 hrs by qRT-PCR analysis. As to conditions: dose 1-100 µM. It is filed as functional, organism-based. A general note: In qPCR the cycle at which signal appears reflects the starting amount.

For the next data set, the system named is Erythrocyte. Briefly: Hemolytic activity in rat RBC assessed as hemolysis measured after 20 hrs. Type of data set: toxicity, cell-based.
The subject of data set [22] is Staphylococcus aureus. Description: Inhibition of biofilm formation in Staphylococcus aureus at 0.78 to 1.56 uM incubated for 24 hrs by crystal violet staining based analysis. It is filed as functional, organism-based. As to conditions: dose 0.78-1.56 µM.

Take `CC1(C)S[C@@H]2[C@H](NC(=O)[C@H](N)c3ccccc3)C(=O)N2[C@H]1C(=O)O` [AMPICILLIN]: the MIC is 0.1 µM (≈ 0.0349 µg/mL) in the data set with Staphylococcus aureus [1]; 0.1 µM (≈ 0.0349 µg/mL) in the data set on Staphylococcus aureus [3]; more than 100 µM with Staphylococcus aureus [5]; 0.39 µM (≈ 0.136 µg/mL) in [6]; 0.78 µM (≈ 0.273 µg/mL) in the data set with Streptococcus pneumoniae [8]; 1.56 µM (≈ 0.545 µg/mL) in [10]. In addition, the MIC in the data set on Streptococcus mutans [12] was 12.5 µM (≈ 4.37 µg/mL); in the data set with Streptococcus mutans [14], 6.25 µM (≈ 2.18 µg/mL); with Escherichia coli [16], more than 100 µM. Besides, the MBC in the data set with Staphylococcus aureus [2] was 0.19 µM (≈ 0.0664 µg/mL); with Staphylococcus aureus [4], 0.19 µM (≈ 0.0664 µg/mL); in data set [7] it was 0.39 µM (≈ 0.136 µg/mL); in the data set with Streptococcus pneumoniae [9] it was 0.78 µM (≈ 0.273 µg/mL); in [11], 1.56 µM (≈ 0.545 µg/mL); in the data set with Streptococcus mutans [13], 12.5 µM (≈ 4.37 µg/mL). The MBC in the data set with Streptococcus mutans [15] was 6.25 µM (≈ 2.18 µg/mL).
As for H-LGAKAGGGIKNLWKKMIKLWY-OH, the MIC with Staphylococcus aureus [1] worked out at 3.13 µM; in the data set with Staphylococcus aureus [3] it was 3.13 µM; in the data set with Staphylococcus aureus [5] it was 6.25 µM; in data set [6], 1.56 µM; in the data set on Streptococcus pneumoniae [8], 6.25 µM; in data set [10] it was 3.13 µM. The MIC was 6.25 µM in the data set with Streptococcus mutans [12], 3.13 µM in the data set with Streptococcus mutans [14] and 6.25 µM with Escherichia coli [16]. Besides, the MBC in the data set with Staphylococcus aureus [2] came to 3.13 µM; in the data set on Staphylococcus aureus [4], 3.13 µM; in the data set on Staphylococcus aureus [17] it was 6.25 µM; in data set [7] it was 3.13 µM; in the data set on Streptococcus pneumoniae [9] it was 25 µM; in [11], 6.25 µM. Also, the MBC with Streptococcus mutans [13] is 6.25 µM; with Streptococcus mutans [15], 3.13 µM; with Escherichia coli [18] it was 12.5 µM. In addition, the result in the data set with Staphylococcus aureus [19], in the data set with Staphylococcus aureus [20] and in the data set with Staphylococcus aureus [21] was inactive. Further, in the data set with Erythrocyte, the Activity entry is reported as “Non-Toxic”. Besides, the inhibition entry in the data set with Staphylococcus aureus [22] was “Active”.

In general, MIC refers to the lowest concentration found to suppress growth. As usually defined, the MBC is the smallest concentration meeting the test's criterion for killing.
